The term MIC denotes the lowest concentration that inhibits growth of the organism.

This note sets out measurements from patent publication US20210317099A1, “SAFER, POTENT, AND FAST ACTING ANTIMICROBIAL AGENTS” (Purdue Research Foundation, priority 2020, published 2021).

In brackets after ≈: the same amount, converted by molar mass.

One assay relates to Staphylococcus aureus NRS384 (MRSA USA300). Put plainly: Initial MIC screening, broth microdilution (CLSI). In kind it is cell-based. The note with it: MRSA USA300, Table 1 assay. The protocol:
Method: The minimum inhibitory concentration (MIC) of the compounds 1-187, and control antibiotics (vancomycin, linezolid) was determined using the broth microdilution method against methicillin-resistant Staphylococcus aureus (MRSA) USA 300 using the broth microdilution method according to the guidelines outlined by the Clinical and Laboratory Standards Institute (CLSI). MRSA strain was cultivated on Tryptic soy agar plates and let grow for 24 hours at 37° C. under aerobic conditions. Bacterial suspension equivalent to 0.5 McFarland standard was prepared and diluted in cation-adjusted Mueller-Hinton broth (CAMHB) to attain a bacterial concentration of 5×10^5 CFU/ml and seeded in 96-well plates. The desired concentrations of each drug and compound were added in the first row of the 96-well plates and serially diluted to achieve a concentration gradient from 64 μg/ml to 0.5 μg/mL.
As to `O=C1O[C@H](c2ccc3ccccc3c2)[C@H](c2ccc3ccccc3c2)C1CN1CCCCC1` (stereo partly drawn) [Compound 167], the “potency compared with control antibiotic” value is on record as “potency comparable to vancomycin”.

The assay is the same for the next values; noted with them: Staphylococcus aureus NRS384 (MRSA USA300), broth microdilution, visual reading.
Compound `C=C1C(=O)O[C@H](c2ccccc2)[C@@H]1c1ccc2ccccc2c1` [Compound 107] had an MIC of 8 µg/mL (≈ 26.6 µM).

`CCN(CC)CC1C(=O)O[C@H](c2ccc3ccccc3c2)[C@H]1c1ccccc1` (stereo partly drawn) [Compound 108] showed an MIC above 128 µg/mL.

Take `C=C1C(=O)O[C@H](c2ccccc2)[C@@H]1c1ccc2ccccc2c1` [Compound 109]: the minimal inhibitory concentration (MIC) is at most 1 µg/mL.

`C=C1C(=O)O[C@H](c2ccccc2)[C@@H]1c1ccc2ccccc2c1` [Compound 112] showed an MIC of 64 µg/mL (≈ 213 µM).

`C=C1C(=O)O[C@H](c2ccnc3ccccc23)[C@H]1c1ccccc1` [Compound 113] showed an MIC of 16 µg/mL (≈ 53.1 µM).

`C=C1C(=O)O[C@H](c2ccnc3ccccc23)[C@H]1c1ccccc1` [Compound 120]: the minimal inhibitory concentration (MIC) worked out at 128 µg/mL (≈ 425 µM).

In turn, `C=C1C(=O)O[C@H](c2ccccc2)[C@@H]1c1ccccc1` [Compound 150] gave a minimal inhibitory concentration (MIC) of 16 µg/mL (≈ 63.9 µM).

Consider `C=C1C(=O)O[C@H](c2ccccc2)[C@@H]1c1ccc2ccccc2c1` [Compound 152], for which the minimum inhibitory concentration (MIC) turned out to be 8 µg/mL (≈ 26.6 µM).

Still in this assay, the particulars now being: Staphylococcus aureus, Staphylococcus aureus NRS384 (MRSA USA300), broth microdilution, visual reading; read-out: MIC.
Regarding `C=C1C(=O)O[C@H](c2cccc(OC)c2)[C@@H]1c1ccc(C(F)(F)F)cc1` [Compound 83], the minimum inhibitory concentration (MIC) is 16 µg/mL (≈ 45.9 µM).

Regarding `C=C1C(=O)O[C@H](c2cccc(F)c2)[C@@H]1CCC` [Compound 84], the minimal inhibitory concentration (MIC) is above 128 µg/mL.

As for `C=C1C(=O)O[C@H](c2ccc(OCc3ccccc3)c(OC)c2)[C@@H]1c1ccccc1Br` [Compound 85], the minimal inhibitory concentration (MIC) was above 128 µg/mL.

For the compound `COc1ccc([C@@H]2C(CN(C)C)C(=O)O[C@@H]2c2ccc(C)cc2)cc1` (stereo partly drawn) [Compound 86], the MIC came out at 128 µg/mL (≈ 377 µM).

On to `C=C1C(=O)O[C@H](c2ccc(OC)cc2)[C@@H]1c1ccccc1B1OC(C)(C)C(C)(C)O1` [Compound 87], for which the MIC was above 128 µg/mL.

Turning to `C=C1C(=O)O[C@H](c2ccc(C(F)(F)F)cc2)[C@@H]1c1cccc(Br)c1` [Compound 88], the minimal inhibitory concentration (MIC) was determined as 16 µg/mL (≈ 40.3 µM).

As for `Cc1ccc([C@@H]2C(S3=NCCS3)C(=O)O[C@@H]2C2CCCCC2)cc1` (stereo partly drawn) [Compound 91], the minimal inhibitory concentration (MIC) was above 128 µg/mL.

As to `C=C1C(=O)O[C@H](c2cc(OC)c(OC)c(OC)c2)[C@@H]1c1ccc(C(F)(F)F)cc1` [Compound 92], the minimum inhibitory concentration (MIC) stood at 32 µg/mL (≈ 78.4 µM).

In the case of `C=C1C(=O)O[C@H](C2CCCCC2)[C@@H]1c1ccc(C)cc1` [Compound 93], the MIC is above 128 µg/mL.

Take `C=C1C(=O)O[C@@H]2c3c(ccc4ccccc34)C(C)C[C@H]12` (stereo partly drawn) [Compound 94]: the MIC stood at 32 µg/mL (≈ 121 µM).

As to `CCN(CC)CC1C(=O)O[C@H](c2ccc3ccccc3c2)[C@H]1c1ccccc1` (stereo partly drawn) [Compound 95], the MIC was above 128 µg/mL.

On to `CCN(CC)CC1C(=O)O[C@H](c2ccc3ccccc3c2)[C@@H]1c1ccccc1` (stereo partly drawn) [Compound 96], for which the MIC was above 128 µg/mL.

For the compound `C=C1C(=O)O[C@H](c2ccccc2)[C@@H]1C` [Compound 97], the minimal inhibitory concentration (MIC) was found to be 16 µg/mL (≈ 85 µM).

As to `C=C1C(=O)O[C@H](c2ccc(N(C)C)cc2)[C@@H]1c1ccccc1` [Compound 98], the MIC was above 128 µg/mL.

Turning to `C=C1C(=O)O[C@H](c2cnc3ccccc3c2)[C@H]1c1ccccc1` [Compound 99], the minimal inhibitory concentration (MIC) amounted to 32 µg/mL (≈ 106 µM).

Take `C=C1C(=O)O[C@H](c2c(F)cccc2F)[C@@H]1c1ccccc1` [Compound 100]: the minimal inhibitory concentration (MIC) amounted to 8 µg/mL (≈ 27.9 µM).

As to `C=C1C(=O)O[C@H](c2ccc([N+](=O)[O-])cc2)[C@@H]1C` [Compound 102], the MIC was above 128 µg/mL.

As for `C=C1C(=O)O[C@H](c2ccccc2)[C@@H]1c1ccccc1` [Compound 103], the MIC was 32 µg/mL (≈ 128 µM).

Consider `C/C=C1/C(=O)O[C@H](c2ccc(C)cc2)[C@H]1C` [Compound 104], for which the MIC is above 128 µg/mL.

As for `C=C1C(=O)O[C@H](c2cc3ccccc3cn2)[C@@H]1C` [Compound 105], the MIC was determined as 16 µg/mL (≈ 66.9 µM).

For `C=C1C(=O)O[C@H](C2CCCCC2)[C@@H]1c1ccccc1` [Compound 106], the MIC was above 128 µg/mL.

`C=C1C(=O)O[C@H](c2ccc3ccccc3c2)[C@H]1c1ccccc1` [Compound 110]: the MIC was found to be 8 µg/mL (≈ 26.6 µM).

For the compound `C=C1C(=O)O[C@H](c2ccnc3ccccc23)[C@@H]1c1ccc2ccccc2c1` [Compound 111], the minimum inhibitory concentration (MIC) was 2 µg/mL (≈ 5.69 µM).

Regarding `C=C1C(=O)O[C@H](c2ccnc3ccccc23)[C@@H]1c1ccccc1` [Compound 114], the MIC turned out to be 32 µg/mL (≈ 106 µM).

For the compound `C=C1C(=O)O[C@H](c2ccccc2)[C@H]1c1ccc2ccccc2c1` [Compound 115], the MIC is 2 µg/mL (≈ 6.66 µM).

For `C=C1C(=O)O[C@H](c2ccc3ccccc3n2)[C@@H]1c1ccccc1` [Compound 116], the MIC is above 128 µg/mL.

For `C=C1C(=O)O[C@H](c2ccc(OC)cc2)[C@@H]1C` [Compound 117], the MIC was above 128 µg/mL.

For `C=C1C(=O)O[C@H](c2ccc(OC)cc2)[C@H]1C` [Compound 118], the minimal inhibitory concentration (MIC) was above 128 µg/mL.

Consider `C=C1C(=O)O[C@H](c2cccnc2)[C@@H]1C` [Compound 119], for which the minimum inhibitory concentration (MIC) was above 128 µg/mL.

Consider `C=C1C(=O)O[C@H](c2ccnc3ncccc23)[C@H]1c1ccccc1` [Compound 121], for which the MIC turned out to be 32 µg/mL (≈ 106 µM).

Consider `C=C1C(=O)O[C@H]2[C@H]1CC/C(C)=C/CC[C@@]1(C)O[C@@H]21` [Compound 125, Parthenolide, reference compound], for which the minimal inhibitory concentration (MIC) was 128 µg/mL (≈ 515 µM).

As for `C=C(C(=O)OC)C(c1ccccc1)C(O)c1ccccc1` (stereo not drawn) [Compound 141], the MIC came to 16 µg/mL (≈ 56.7 µM).

As to `C=C(C(=O)OC)C(c1ccccc1)C(O)c1cccc2ccccc12` (stereo not drawn) [Compound 142], the MIC is 4 µg/mL (≈ 12 µM).

With `C=C(C(=O)OC)C(c1ccccc1)C(O)c1ccc2ccccc2c1` (stereo not drawn) [Compound 143], the MIC was 16 µg/mL (≈ 48.1 µM).

For `C=C(C(=O)OC)C(c1cccc2ccccc12)C(O)c1cccc2ccccc12` (stereo not drawn) [Compound 145], the minimal inhibitory concentration (MIC) is above 64 µg/mL.

As to `C=C(C(=O)OC)C(c1cccc2ccccc12)C(O)c1ccc2ccccc2c1` (stereo not drawn) [Compound 146], the MIC was above 64 µg/mL.

`C=C(C(=O)OC)C(c1ccc2ccccc2c1)C(O)c1ccccc1` (stereo not drawn) [Compound 147]: the minimum inhibitory concentration (MIC) amounted to 8 µg/mL (≈ 24.1 µM).

For `C=C1C(=O)O[C@H](c2ccc3ccccc3c2)[C@@H]1c1ccccc1` [Compound 156], the minimal inhibitory concentration (MIC) was 16 µg/mL (≈ 53.3 µM).

Turning to `C=C1C(=O)O[C@H](c2ccc3ccccc3c2)[C@@H]1c1cccc2ccccc12` [Compound 157], the minimal inhibitory concentration (MIC) was above 64 µg/mL.

As for `O=C1O[C@H](c2ccccc2)[C@H](c2ccccc2)C1CN1CCCCC1` (stereo partly drawn) [Compound 159], the MIC was found to be 16 µg/mL (≈ 47.7 µM).

Turning to `O=C1O[C@H](c2ccccc2)[C@H](c2ccc3ccccc3c2)C1CN1CCCCC1` (stereo partly drawn) [Compound 161], the MIC was found to be 16 µg/mL (≈ 41.5 µM).

As to `O=C1O[C@H](c2cccc3ccccc23)[C@H](c2ccccc2)C1CN1CCCCC1` (stereo partly drawn) [Compound 162], the MIC was 8 µg/mL (≈ 20.8 µM).

In the case of `O=C1O[C@H](c2cccc3ccccc23)[C@H](c2cccc3ccccc23)C1CN1CCCCC1` (stereo partly drawn) [Compound 163], the MIC was above 64 µg/mL.

For `O=C1O[C@H](c2cccc3ccccc23)[C@H](c2ccc3ccccc3c2)C1CN1CCCCC1` (stereo partly drawn) [Compound 164], the minimum inhibitory concentration (MIC) was above 64 µg/mL.

For the compound `O=C1O[C@H](c2ccc3ccccc3c2)[C@H](c2ccc3ccccc3c2)C1CN1CCCCC1` (stereo partly drawn) [Compound 167], the MIC stood at 2 µg/mL (≈ 4.59 µM).

Take `CN(C)CC1C(=O)O[C@H](c2cccc3ccccc23)[C@@H]1c1ccc2ccccc2c1` (stereo partly drawn) [Compound 169]: the minimal inhibitory concentration (MIC) was 4 µg/mL (≈ 10.1 µM).

`CCN(CC)CC1C(=O)O[C@H](c2ccccc2)[C@@H]1c1cccc2ccccc12` (stereo partly drawn) [Compound 173]: the MIC was determined as 8 µg/mL (≈ 21.4 µM).

Turning to `C=C1C(=O)OC(C2CCCCC2)C1c1ccccc1` (stereo not drawn) [Compound 181], the MIC is above 64 µg/mL.

In the case of `O=C1OC(C2CCCCC2)[C@H](c2ccccc2)C1CN1CCCCC1` (stereo partly drawn) [Compound 182], the minimal inhibitory concentration (MIC) worked out at 32 µg/mL (≈ 93.7 µM).

`C=C1C(=O)OC(C2=CC=CCC2)C1C1CCCCC1` (stereo not drawn) [Compound 185]: the minimum inhibitory concentration (MIC) was above 64 µg/mL.

Take `O=C1OC(c2ccccc2)C(C2CCCCC2)C1CN1CCCCC1` (stereo not drawn) [Compound 186]: the minimum inhibitory concentration (MIC) was above 64 µg/mL.
